According to BindingDB's records for patent US10065961 (Ogeda, 2018):
pIC50: −log10 of the molar value.

Target: T1, Neuromedin-K receptor (Homo sapiens, UniProt P29371)
T1 sequence (P29371 whole entry): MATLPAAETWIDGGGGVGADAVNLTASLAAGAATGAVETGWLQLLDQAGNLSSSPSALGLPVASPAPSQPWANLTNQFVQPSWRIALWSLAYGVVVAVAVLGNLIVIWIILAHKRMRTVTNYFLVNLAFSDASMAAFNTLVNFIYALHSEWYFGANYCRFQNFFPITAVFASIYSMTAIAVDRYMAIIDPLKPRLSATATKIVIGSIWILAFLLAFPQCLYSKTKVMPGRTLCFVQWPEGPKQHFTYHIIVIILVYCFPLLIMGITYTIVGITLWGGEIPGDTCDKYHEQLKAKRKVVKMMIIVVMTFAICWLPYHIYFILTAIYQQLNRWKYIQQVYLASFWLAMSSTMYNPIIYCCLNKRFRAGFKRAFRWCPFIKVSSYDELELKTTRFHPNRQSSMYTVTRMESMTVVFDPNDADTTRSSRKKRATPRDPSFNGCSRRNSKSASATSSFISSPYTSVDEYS
Assay: Aequorin Assay with Human NK-3 Receptor
Method: The antagonist activity of compounds of the invention is measured following pre-incubation (3 minutes) of the compound with the cells, followed by addition of the reference agonist (NKA) at a final concentration equivalent to the EC80 (3 nM) and recording of emitted light (FDSS 6000 Hamamatsu) over the subsequent 90-second period. The intensity of the emitted light is integrated using the reader software.

Cc1coc(-c2nnc3n2CCN[C@@H]3C)n1 [US10065961, Compound 27]
pIC50: 7.29
